≈ marks a conversion by molar mass, not a printed value. Where a SMILES comes first, the peptide text is derived from it. Where no end group is shown, it is not given here. [ ]: non-standard residue; d: D form. Bip = N[C@@H](Cc1ccc(-c2ccccc2)cc1)C(=O)O; 1Nal = N[C@@H](Cc1cccc2ccccc12)C(=O)O; 2Nal = N[C@@H](Cc1ccc2ccccc2c1)C(=O)O; Aib = CC(C)(N)C(=O)O
Tests used:
[1] = system: Pseudomonas aeruginosa (PA); assay: Broth microdilution anti-bacterial assay (CLSI), Pseudomonas aeruginosa; format: cell-based, Pseudomonas aeruginosa (ATCC 14213); conditions: for MIC / MBC: PA; for MIC: overnight, 37° C., ≥99% inhibition; for MBC: ≥99% killing; for anti-bacterial activity (in words): PA and SA
Protocol: (§1) To evaluate their anti-bacterial potency, broth microdilution method as per the CLSI guidelines 1 was used. […] The anti-bacterial potency of the tested agents is quantified using minimum inhibitory concentration (MIC) and minimum bactericidal concentration (MBC). […] To obtain the MBC data, 1X, 2X and 4× MIC of the peptide variants were plated to obtain the number of viable colonies compared to the original inoculum.
(§2) Pseudomonas aeruginosa (ATCC 14213, PA), and methicillin resistant Staphylococcus aureus (BAA1717-USA 300, SA) were obtained from The American Type Culture Collection (ATCC).
(§3) Examination of the potency of modified short peptides against PA and SA strains was performed by using the broth microdilution protocol from the Clinical and Laboratory Standards Institute (CLSI) guidelines (CLSI 2012) as described. Briefly, five freshly plated bacteria colonies were grown in cation adjusted MH2 broth (BD Biosciences) in a shaker incubator at 37° C., 220 RPM. Cells were grown to an optical density (OD600) of ~0.2 measured using a Microplate Spectrophotometer (Molecular Devices Spectra Max Plus). 100 μL of microbial culture containing ~5×10^5 CFU/mL of bacteria in the respective broths were introduced into each well containing 100 μL of peptides and incubated overnight at 37° C. Next, to check the bactericidal effects, 100 μL from each well was transferred and spread on sterile MH2 agar plates. The plates were incubated overnight at 37° C. and the number of colonies forming units (CFU) were calculated the following day. Readings of bacteria grown in media without any treatments were normalized to 100% as media control. For the mixed infection study, three freshly plated bacteria colonies each from PA, SA and ST plates were grown together in cation adjusted MH2 broth and proceeded as described above.

[2] = system: Staphylococcus aureus (SA); assay: Broth microdilution anti-bacterial assay (CLSI), Staphylococcus aureus; format: cell-based; conditions: SA; for MIC: overnight, 37° C., ≥99% inhibition; for MBC: ≥99% killing
Protocol: as §1, §2, §3

Compound | MIC [1] [µM] | MBC [1] [µM] | MIC [2] [µM] | MBC [2] [µM] | anti-bacterial activity (in words) [1]
CC(C)C[C@H](NC(=O)[C@H](CO)NC(=O)[C@H](CC(C)C)NC(=O)[C@H](C)NC(=O)[C@H](CC(C)C)NC(=O)[C@H](CCCCN)NC(=O)[C@H](CC(C)C)NC(=O)[C@H](C)NC(=O)[C@H](CCCCN)NC(=O)[C@H](CCCCN)NC(=O)[C@H](CO)NC(=O)[C@H](CC(C)C)NC(=O)[C@H](CCCCN)NC(=O)[C@H](CC(C)C)NC(=O)[C@H](Cc1ccc2ccccc2c1)NC(=O)[C@H](CCCCN)NC(=O)[C@H](CCCCN)NC(=O)[C@H](CC(C)C)NC(=O)[C@H](CC(C)C)NC(=O)[C@H](CCCCN)NC(=O)[C@@H](N)CCCCN)C(N)=O [W72NalV8LQ19L] (H-KKLLKK[2Nal]LKLSKKALKLALSL-NH2) | 1.56 (≈ 3.84 µg/mL) | 1.66 (≈ 4.09 µg/mL) | 1.56 (≈ 3.84 µg/mL) | 1.56 (≈ 3.84 µg/mL) | –
KKWVKLSKKALKLAQSL-NH2 [E1AM2 N-4] | >25 | – | – | – | –
KKLLKKWVKLSKKALKLA-NH2 [E1AM2 C-3] | 6.25 | – | – | – | –
CC(C)C[C@H](NC(=O)[C@H](CO)NC(=O)[C@H](CC(C)C)NC(=O)[C@H](C)NC(=O)[C@H](CC(C)C)NC(=O)[C@H](CCCCN)NC(=O)[C@H](CC(C)C)NC(=O)C(C)(C)NC(=O)[C@H](CCCCN)NC(=O)[C@H](CCCCN)NC(=O)[C@H](CO)NC(=O)[C@H](CC(C)C)NC(=O)[C@H](CCCCN)NC(=O)[C@H](CC(C)C)NC(=O)[C@H](Cc1c[nH]c2ccccc12)NC(=O)[C@H](CCCCN)NC(=O)[C@H](CCCCN)NC(=O)[C@H](CC(C)C)NC(=O)[C@H](CC(C)C)NC(=O)[C@H](CCCCN)NC(=O)[C@@H](N)CCCCN)C(N)=O [V8LQ19LA14Aib] (H-KKLLKKWLKLSKK[Aib]LKLALSL-NH2) | 3.126 (≈ 7.7 µg/mL) | 6.25 (≈ 15.4 µg/mL) | 3.125 (≈ 7.7 µg/mL) | 6.25 (≈ 15.4 µg/mL) | –
Ac-KKLLKKWVKLSKKALKLAQSL [Ac-E1AM2] | 25 | 25 | – | – | –
KKLLKKWVKLSKKLLKLAQSL-NH2 [A14L] | 12.5 | 12.5 | 6.25 | 6.25 | –
KKLLKKLLKLSKKALKLALSL-NH2 [W7LV8LQ19L] | 3.125 | 3.125 | 1.58 | 1.58 | –
LKKWVKLSKKALKLAQSL-NH2 [E1AM2 N-3] | 12.5 | – | – | – | –
KWVKLSKKALKLAQSL-NH2 [E1AM2 N-5] | >25 | – | – | – | –
KLLKKWVKLSKKALKLAQSL-NH2 [E1AM2 N-1] | 12.5 | – | – | – | –
KKLLKKWVKLSKKALKLAQS-NH2 [E1AM2 C-1] | >25 | – | – | – | –
KKLLKKWLKLSKKALKLALS-NH2 [V8LQ19L C-1] | 3.125 | 3.125 | 3.125 | 3.125 | strong potency
KKLLKKWVKLSKKALKLAQ-NH2 [E1AM2 C-2] | 25 | – | – | – | –
KKLLKKWKKLSKKALKLAQSL-NH2 [V8K] | 3.125 | 3.126 | 12.5 | 12.5 | –
KKLLKKWVKLSKKALK-NH2 [E1AM2 C-5] | >25 | – | – | – | –
Ac-KKLLKKWVKLSKKALKLAQSL-NH2 [Ac-E1AM2-NH2] | 12.5 | 12.5 | – | – | –
KKLLKKWVKLSKKALKL-NH2 [E1AM2 C-4] | >12.5 | – | – | – | –
KKLLKKWVKLSKKAL-NH2 [E1AM2 C-6] | >25 | – | – | – | –

Compound | MIC [1] [µM] | MBC [1] [µM] | MIC [2] [µM] | MBC [2] [µM] | anti-bacterial activity (in words) [1]
KKLLKKWVKLSKKALKLAKSL-NH2 [Q19K] | 12.5 | 25 | 12.5 | 25 | –
CC(C)C[C@H](NC(=O)[C@H](CO)NC(=O)[C@H](CC(C)C)NC(=O)C(C)(C)NC(=O)[C@H](CC(C)C)NC(=O)[C@H](CCCCN)NC(=O)[C@H](CC(C)C)NC(=O)[C@H](C)NC(=O)[C@H](CCCCN)NC(=O)[C@H](CCCCN)NC(=O)[C@H](CO)NC(=O)[C@H](CC(C)C)NC(=O)[C@H](CCCCN)NC(=O)[C@H](CC(C)C)NC(=O)[C@H](Cc1c[nH]c2ccccc12)NC(=O)[C@H](CCCCN)NC(=O)[C@H](CCCCN)NC(=O)[C@H](CC(C)C)NC(=O)[C@H](CC(C)C)NC(=O)[C@H](CCCCN)NC(=O)[C@@H](N)CCCCN)C(N)=O [V8LQ19LA18Aib] (H-KKLLKKWLKLSKKALKL[Aib]LSL-NH2) | 3.125 (≈ 7.7 µg/mL) | 3.125 (≈ 7.7 µg/mL) | 1.58 (≈ 3.89 µg/mL) | 1.56 (≈ 3.84 µg/mL) | –
KKLLKKWLKLSKKALKLA-NH2 [V8LQ19L C-3] | >6.25 | >6.25 | >6.25 | >8.26 | strong potency
LLKKWVKLSKKALKLAQSL-NH2 [E1AM2 N-2] | 25 | – | – | – | –
KKLLKKWVKLSKKALKLLQSL-NH2 [A18L] | 6.25 | 6.25 | 3.125 | 3.125 | –
KKLLKKWVKLLKKALKLAQSL-NH2 [S11L] | 12.5 | 12.5 | 6.25 | 6.25 | –
KKLLKKWVKLSKKALKLAQKL-NH2 [S20K] | 25 | 25 | 25 | 25 | –
KKLLKKKVKLSKKALKLAQSL-NH2 [W7K] | 12.5 | 12.5 | 12.5 | 25 | –
KKLLKKWVKLKKKALKLAQSL-NH2 [S11K] | 12.5 | 12.5 | 12.5 | 12.5 | –
KKLLKKWVKLSKKALKLAQLL-NH2 [S20L] | 6.25 | 12.5 | 6.25 | 12.5 | –
CC(C)C[C@H](NC(=O)[C@H](CO)NC(=O)[C@H](CC(C)C)NC(=O)C(C)(C)NC(=O)[C@H](CC(C)C)NC(=O)[C@H](CCCCN)NC(=O)[C@H](CC(C)C)NC(=O)C(C)(C)NC(=O)[C@H](CCCCN)NC(=O)[C@H](CCCCN)NC(=O)[C@H](CO)NC(=O)[C@H](CC(C)C)NC(=O)[C@H](CCCCN)NC(=O)[C@H](CC(C)C)NC(=O)[C@H](Cc1c[nH]c2ccccc12)NC(=O)[C@H](CCCCN)NC(=O)[C@H](CCCCN)NC(=O)[C@H](CC(C)C)NC(=O)[C@H](CC(C)C)NC(=O)[C@H](CCCCN)NC(=O)[C@@H](N)CCCCN)C(N)=O [V8LQ19LA1418Aib] (H-KKLLKKWLKLSKK[Aib]LKL[Aib]LSL-NH2) | 3.126 (≈ 7.75 µg/mL) | 3.125 (≈ 7.74 µg/mL) | 1.56 (≈ 3.87 µg/mL) | 1.56 (≈ 3.87 µg/mL) | –
WVKLSKKALKLAQSL-NH2 [E1AM2 N-6] | >25 | – | – | – | –
KKLLKKWVKLSKKALKLKQSL-NH2 [A18K] | 12.5 | 25 | 12.5 | 12.5 | –
KKLLKKLVKLSKKALKLAQSL-NH2 [W7L] | 3.125 | 3.125 | 6.25 | 6.25 | reduced MIC against PA
CC(C)C[C@H](NC(=O)[C@H](CO)NC(=O)[C@H](CC(C)C)NC(=O)[C@H](C)NC(=O)[C@H](CC(C)C)NC(=O)[C@H](CCCCN)NC(=O)[C@H](CC(C)C)NC(=O)[C@H](C)NC(=O)[C@H](CCCCN)NC(=O)[C@H](CCCCN)NC(=O)[C@H](CO)NC(=O)[C@H](CC(C)C)NC(=O)[C@H](CCCCN)NC(=O)[C@H](CC(C)C)NC(=O)[C@H](Cc1cccc2ccccc12)NC(=O)[C@H](CCCCN)NC(=O)[C@H](CCCCN)NC(=O)[C@H](CC(C)C)NC(=O)[C@H](CC(C)C)NC(=O)[C@H](CCCCN)NC(=O)[C@@H](N)CCCCN)C(N)=O [W71NalV8LQ19L] (H-KKLLKK[1Nal]LKLSKKALKLALSL-NH2) | 3.125 (≈ 7.69 µg/mL) | 3.125 (≈ 7.69 µg/mL) | 1.56 (≈ 3.84 µg/mL) | 1.56 (≈ 3.84 µg/mL) | –
CC(C)C[C@H](NC(=O)[C@H](CO)NC(=O)[C@H](CC(C)C)NC(=O)[C@H](C)NC(=O)[C@H](CC(C)C)NC(=O)[C@H](CCCCN)NC(=O)[C@H](CC(C)C)NC(=O)[C@H](C)NC(=O)[C@H](CCCCN)NC(=O)[C@H](CCCCN)NC(=O)[C@H](CO)NC(=O)[C@H](CC(C)C)NC(=O)[C@H](CCCCN)NC(=O)[C@H](CC(C)C)NC(=O)[C@H](Cc1ccc(-c2ccccc2)cc1)NC(=O)[C@H](CCCCN)NC(=O)[C@H](CCCCN)NC(=O)[C@H](CC(C)C)NC(=O)[C@H](CC(C)C)NC(=O)[C@H](CCCCN)NC(=O)[C@@H](N)CCCCN)C(N)=O [W7BipV8LQ19L] (H-KKLLKK[Bip]LKLSKKALKLALSL-NH2) | 3.325 (≈ 8.27 µg/mL) | 3.125 (≈ 7.77 µg/mL) | 1.58 (≈ 3.93 µg/mL) | 1.56 (≈ 3.88 µg/mL) | –
KKLLKKWVKLSKKKLKLAQSL-NH2 [A14K] | 12.5 | 12.5 | 12.5 | 12.5 | –
